Experimental data taken from the supplement of paper PMC5844555.

What was measured:
Assay in all cases: 3' UTR reporter interaction score (median-centred robust z-score of log2 firefly/Renilla activity); higher = less repression of the 3' UTR reporter
Conditions in all cases: HEK293T; 48 h
FBXW7 = system: FBXW7
Method in brief: (§1)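 Firefly and Renilla luciferase activities were read 48 h post-transfection in HEK293T cells (10,000/well, 96-well plates). The cells had received 100 ng firefly luc2P reporter bearing the gene's 3' UTR, 20 ng Renilla pRL-TK control and 2.5 pmol miRNA mimic via DharmaFECT Duo. The interaction score, where more negative means interaction, is a per-plate robust z-score (median, median absolute deviation) of the log firefly/Renilla ratio, median-centred per miRNA and averaged over at least two independent screens.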

MYC = system: MYC
Method in brief: as §1

MYCN = system: MYCN
Method in brief: as §1

PHF6 = system: PHF6
Method in brief: as §1

MYT1L = system: MYT1L
Method in brief: as §1

PHOX2B = system: PHOX2B
Method in brief: as §1

RB1 = system: RB1
Method in brief: as §1

BRCA2 = system: BRCA2
Method in brief: as §1

MYB = system: MYB
Method in brief: as §1

EZH2 = system: EZH2
Method in brief: as §1

ZEB2 = system: ZEB2
Method in brief: as §1

HRAS = system: HRAS
Method in brief: as §1

NOTCH1 = system: NOTCH1
Method in brief: as §1

TP53 = system: TP53
Method in brief: as §1

Sequence | 3' UTR reporter interaction score (FBXW7) | 3' UTR reporter interaction score (MYC) | 3' UTR reporter interaction score (MYCN) | 3' UTR reporter interaction score (PHF6) | 3' UTR reporter interaction score (MYT1L) | 3' UTR reporter interaction score (PHOX2B) | 3' UTR reporter interaction score (RB1) | 3' UTR reporter interaction score (BRCA2) | 3' UTR reporter interaction score (MYB) | 3' UTR reporter interaction score (EZH2) | 3' UTR reporter interaction score (ZEB2) | 3' UTR reporter interaction score (HRAS) | 3' UTR reporter interaction score (NOTCH1) | 3' UTR reporter interaction score (TP53)
AUCACAUUGCCAGGGAUUACC | -0.221 | 0.209 | 0.139 | 0.0907 | 0.363 | 0.2 | 0.534 | -1.56 | -0.174 | 0.0796 | 1.1 | -0.747 | -0.965 | –
CAAAGUGCUUACAGUGCAGGUAGU | – | 0.444 | -0.306 | -0.0772 | -0.396 | 0.665 | 0.713 | -0.125 | -0.142 | -0.848 | 1.15 | 0.135 | 0.897 | 0.459
CCUAGUAGGUGUCCAGUAAGUGU | -0.251 | 0.727 | 0.245 | -0.224 | 0.0095 | 0.805 | -1.08 | -0.873 | 0.0319 | -0.633 | – | -0.971 | 0.26 | -0.172
GGCAAGAUGCUGGCAUAGCUG | 1.19 | 0.017 | 0.322 | -1.44 | -0.16 | 1.14 | 0.334 | – | 0.765 | -0.113 | 1.14 | 0.647 | -0.293 | -0.71
GUGAAAUGUUUAGGACCACUAG | 0.238 | – | -0.394 | 1.07 | 0.987 | 0.216 | -0.00504 | -0.28 | -0.192 | -0.221 | 0.105 | -0.276 | -0.392 | 0.19
UAAUACUGCCUGGUAAUGAUGAC | -0.751 | 1.05 | -0.158 | 2 | 1.12 | -1.14 | 0.622 | – | -2.25 | 0.31 | -3.47 | -0.0979 | -0.616 | -0.665
UACUCAGGAGAGUGGCAAUCACA | -0.521 | 0.13 | 0.696 | -1.8 | -0.715 | 0.756 | -0.0737 | 0.435 | 1.48 | -0.403 | 0.272 | -0.17 | -0.379 | –
UCACUCCUCUCCUCCCGUCUUCU | -1.25 | – | 0.923 | 0.199 | 1.44 | -0.219 | 0.27 | -0.727 | 0.575 | -1.64 | 1.61 | -0.435 | 1.17 | -0.451
UGUAAACAUCCUUGACUGGA | 0.548 | – | -0.313 | -0.821 | 0.512 | 0.574 | -0.17 | 0.0901 | 0.77 | -0.145 | -1.5 | 0.642 | -0.407 | -0.0994
UUUCAAGCCAGGGGGCGUUUUUC | 1.22 | 0.49 | -0.0394 | -0.209 | 0.976 | -0.413 | -0.19 | -0.216 | 0.555 | -0.378 | – | -0.232 | -1.91 | 1.02
